# According to paper PMC8708382, “Heterocyclic Cathinones as Inhibitors of Kynurenine Aminotransferase II—Design, Synthesis, and Evaluation” (Pharmaceuticals, 2021):
# Read-outs that look alike come from different tables or passages of the source.
# Tests used:
# [1] = tested on: KAT-II; settings: published KAT-II inhibitors, Figure 2; cited from earlier work
# [2] = molecular target: T1, hKAT-II (Homo sapiens, UniProt Q8N5Z0); assay: Coupled fluorescence in vitro inhibition assay of hKAT-II; assay type: biochemical; settings: for Inhibitory Activity [%I ± SEM] c = 1 µM: 30 min pre-incubation with enzyme, mean ± SEM
# T1 construct: hexahistidine tag (N); made in house; host or cells: E. coli BL21(DE3)-RIL
# Experimental: The inhibitory activity of amino ketones 11 and 12 was evaluated using a fluorimetric in vitro assay. The activity was determined as the percentage of inhibition (%I) at a concentration of 1 µmol/L and also as IC50 values (Table 1). The observed inhibitory activity confirmed the validity of the computational model and was suitable to conduct a synthesis-directed SAR study around the predicted heterocyclic α-amino ketone structure.
# The nucleotide sequence encoding hKAT-II gene was constructed by Invitrogen, Thermo Fisher Scientific. The hKAT-II gene, optimized for heterologous expression in E. coli, was cloned into a pET15b vector using NdeI-XhoI. The hKAT-II protein, carrying an N-terminal hexahistidine tag, was produced in E.coli BL21(DE3)-RIL cells for 4 h at 37 °C. The bacterial cells were then harvested and disintegrated using One-Shot. […] (25.000× g, 30 min) centrifugation cleared cell lysate containing hKAT-II was loaded on the top of a HisTrap Fast Flow column (Cytiva) equilibrated in loading buffer (40 mM Tris, pH 8; 1000 mM NaCl, 40 µM PLP, 5 mM MgCl2, 20 mM imidazole). Following elution of the bound proteins by the loading buffer containing 600 mM imidazole, purified hKAT-II was dialyzed into a storage buffer (20 mM Hepes pH 7.5; 50 mM NaCl, 70 µM PLP, 10% glycerol), concentrated to 1.0–1.5 mg/mL, aliquoted, and stored at −80 °C.
# hKAT-II activity was measured using a fluorescence assay utilizing L-α-aminoadipic acid (AAD) and α-ketoglutarate as the substrates as previously described. The assay medium (100 µL) consisted of 0.75 µM of hKAT-II, 0.3 mM of AAD, 50 µM α-ketoglutarate, 3 mM NAD^+, 88 µg/mL of glutamic dehydrogenase, and 5 µM pyridoxal phosphate (PLP) in a 0.1 M phosphate buffer pH 7.5. The activity of the enzyme was assessed on a Spark multiple mode reader (Tecan Group Ltd., Männedorf, Switzerland) with an excitation wavelength of 340 nm and emission wavelength of 390 nm at 37 °C. The plate was shaken for 20 s before reading. The kinetic interval was set at 30 s between each reading, and data were collected for 30 min. The activity of the enzyme was assayed in pentaplicate in each measurement (n = 3). Kinetic data were then collected over a period of 30 min, and the linear part of the initial velocity was used to calculate the enzyme activity expressed as the slope of the linearized curve via the linear regression function (Excel, Microsoft, USA).
# The inhibitory activity of the tested compounds was determined via 30 min pre-incubation with the enzyme at various concentrations of the inhibitor at room temperature in a 0.1 M phosphate buffer pH 7.5 with 5 µM PLP. The enzyme reaction was initiated by the addition of a substrate and cofactors. The final mixture contained 20 nM of hKAT-II, 0.3 mM of AAD, 50 µM α-ketoglutarate, 3 mM NAD^+, and 88 µg/mL of glutamic dehydrogenase. Kinetic data were collected over a period of 30 min, and the slope of the linearized curve was calculated as above. The inhibitory activity in %I at a given concentration was calculated for novel compounds using the following equation:(1) Inhibition [%I]=(V0− Vi/V0)×100, where V0 and Vi are the activity of the enzyme in the absence and presence of the inhibitor, respectively. All the data were obtained in pentaplicate for each measurement (n = 3). Alternatively, the IC50 values for selected novel compounds were assessed. GraphPad Prism 8 software (San Diego, USA) was used for the IC50 value calculation using non-linear regression (four parameters). […]
# T1 sequence (Q8N5Z0 30-425): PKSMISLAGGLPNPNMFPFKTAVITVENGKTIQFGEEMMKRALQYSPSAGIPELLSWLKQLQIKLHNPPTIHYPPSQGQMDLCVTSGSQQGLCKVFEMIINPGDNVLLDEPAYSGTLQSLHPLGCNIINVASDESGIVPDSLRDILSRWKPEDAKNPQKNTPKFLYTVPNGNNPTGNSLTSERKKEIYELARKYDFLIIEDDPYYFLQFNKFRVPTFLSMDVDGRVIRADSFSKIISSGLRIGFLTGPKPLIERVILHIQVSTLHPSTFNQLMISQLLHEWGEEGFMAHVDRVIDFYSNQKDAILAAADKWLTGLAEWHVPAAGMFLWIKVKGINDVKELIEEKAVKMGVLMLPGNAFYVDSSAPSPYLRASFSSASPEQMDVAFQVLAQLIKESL
SMILES,IC50 [1] [nM],Inhibitory Activity [%I ± SEM] c = 1 µM ([2]; 20 nM hKAT-II) [%I],melting point,other results
"CCS(=O)(=O)c1ccc(C(=O)C[C@H](N)C(=O)O)cc1 [Compound 1, (S)-ESBA]",71000,–,–,–
"C[C@H]1COc2c(N3CCN(N)CC3)c(F)cc3c(=O)c(C(=O)O)cn1c23 [Compound 2, BFF-122]",1000,–,–,–
N[C@H]1Cc2cn(-c3ccccc3)nc2N(O)C1=O [Compound 4],25,–,–,–
"O=C1NC(=O)/C(=C/c2cccc(-c3ccc4c5c3CCC(=O)N5CC4)c2)S1 [Compound 5, BFF-816]",13400,–,–,–
"CC1(C)[C@@H](O)CC[C@]2(C)[C@H]3C(=O)C=C4[C@@H]5C[C@@](C)(C(=O)O)CC[C@]5(C)CC[C@@]4(C)[C@]3(C)CC[C@@H]12 [Compound 6, glycyrrhetinic acid]",7000,–,–,–
NS(=O)(=O)c1ccc(N2C(=O)c3cc(Cl)c(Cl)cc3C2=O)cc1 [Compound 7],73800,–,–,–
Cn1c(CN2CCOCC2)nc2sc([C@H]3CCCN3C(=O)OCc3ccccc3)nc2c1=O [Compound 8],610,–,–,–
CC(C)[C@@H](Cc1nnc(NS(=O)(=O)c2cc(F)cc(F)c2)s1)c1cccc(F)c1 [Compound 9],880,–,–,–
Cc1ccc(NC(=O)N2CCCC3(CCC(=O)N(CCC(C)C)C3)C2)cc1Cl (stereo not shown) [Compound 10],810,–,–,–
C[C@H](N)C(=O)c1nc2ccccc2s1.Cl [Compound 34a],–,52.49 ± 1.31,> 156 °C (dec.),–
C[C@H](N)C(=O)c1nc2ccc(F)cc2s1 [Compound 34b],–,56.60 ± 3.68,> 152 °C (dec.),IC50 [2]: 987 ± 88 nM
CC[C@H](N)C(=O)c1nc2ccccc2s1.Cl [Compound 34c],–,36.16 ± 3.81,> 140 °C (dec.),–
CC[C@H](N)C(=O)c1nc2ccc(F)cc2s1.Cl [Compound 34d],–,9.73 ± 1.41,> 145 °C (dec.),–
CC[C@H](N)C(=O)c1ncc(-c2ccc(F)cc2)s1 [Compound 49b],–,57.07 ± 0.31,> 150 °C (dec.),–
C[C@H](N)C(=O)c1ncc(-c2ccc(F)cc2Cl)s1.Cl [Compound 49c],–,47.65 ± 1.71,127 to 134 °C (dec.),–
CC[C@H](N)C(=O)c1ncc(-c2ccc(F)cc2Cl)s1.Cl [Compound 49d],–,59.71 ± 0.97,> 134 °C (dec.),"IC50 ([2]; 30 min pre-incubation, 20 nM hKAT-II, non-linear regression (four parameters), read-out: IC50 ± SEM): 304 ± 39 nM"
